Measured values reported in patent publication EP4778922A1, “BICYCLIC COMPOUND, AND PREPARATION METHOD THEREFOR AND PHARMACEUTICAL USE THEREOF” (Shanghai Jeyou Pharmaceutical Co., Ltd., priority 2023, dated 2025).
Read-outs that look alike come from different tables or passages of the source.

Experiments:
[1] = Mouse pharmacokinetic test; type: in vivo, ICR mice; conditions: plasma; for Tmax: read-out: Tmax
Procedure, shortened: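 Male naive ICR mice (25–30 g, n=3 per route) received a single intravenous or oral dose, with feeding resumed 4 h post-dose. Blood was centrifuged at 4°C, and plasma was stored at -80°C until analysis.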

[2] = system: LNCaP cells; assay: Cell proliferation inhibition assay in LNCaP cells (0.2 nM DHT, CellTiter-Glo, 7 days); type: cell-based, human; conditions: Homo sapiens, LNCaP, 168 h
Procedure, shortened: (§1)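 22RV1 cells received compound alone; LNCaP cells were stimulated with 0.2 nM DHT added 1 h after compound. Seeding was 3000 cells/well.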

[3] = target: T1, CYP3A4 (testosterone/midazolam) (Homo sapiens, UniProt P08684); assay: CYP inhibition assay in human liver microsomes; type: in vitro ADME
T1 construct: co-incubated with human liver microsomes; from tissue; host or cells: human liver microsomes
Procedure: (§2) Test Example 3: CYP Inhibition Assay
(§3) An in vitro assay system was used to evaluate the effects of the compounds on the activities of several human liver microsomal cytochrome P450 (CYP) isozymes (CYP1A2, CYP2C9, CYP2D6, CYP3A4 (testosterone/midazolam), CYP2C19, and CYP2C8). Specific probe substrates for CYP450 isozymes were co-incubated with human liver microsomes and the compound at various concentrations (0, 0.0300, 0.100, 0.300, 1.00, 3.00, 10.0 µM). The reaction was initiated by adding the coenzyme NADPH. After the reaction was completed, the samples were processed, and the metabolites generated from the probe substrates were detected by liquid chromatography-tandem mass spectrometry (LC-MS/MS). Based on the resulting dose-response curves, the IC50 values of the test compounds for the probe substrate reactions catalyzed by each CYP isozyme were calculated.

[4] = target: T2, CYP2C9 (Homo sapiens, UniProt P11712); assay: CYP inhibition assay in human liver microsomes; type: in vitro ADME; conditions: human liver microsomes, NADPH; read-out: CYPs 2C9 (IC50)
T2 construct: co-incubated with human liver microsomes; from tissue; host or cells: human liver microsomes
Procedure: as §2, §3

[5] = target: T3, CYP1A2 (Homo sapiens, UniProt P05177); assay: CYP inhibition assay in human liver microsomes; type: in vitro ADME; conditions: human liver microsomes, NADPH; read-out: CYPs 1A2 (IC50)
T3 construct: co-incubated with human liver microsomes; from tissue; host or cells: human liver microsomes
T3 sequence (P05177 1-516): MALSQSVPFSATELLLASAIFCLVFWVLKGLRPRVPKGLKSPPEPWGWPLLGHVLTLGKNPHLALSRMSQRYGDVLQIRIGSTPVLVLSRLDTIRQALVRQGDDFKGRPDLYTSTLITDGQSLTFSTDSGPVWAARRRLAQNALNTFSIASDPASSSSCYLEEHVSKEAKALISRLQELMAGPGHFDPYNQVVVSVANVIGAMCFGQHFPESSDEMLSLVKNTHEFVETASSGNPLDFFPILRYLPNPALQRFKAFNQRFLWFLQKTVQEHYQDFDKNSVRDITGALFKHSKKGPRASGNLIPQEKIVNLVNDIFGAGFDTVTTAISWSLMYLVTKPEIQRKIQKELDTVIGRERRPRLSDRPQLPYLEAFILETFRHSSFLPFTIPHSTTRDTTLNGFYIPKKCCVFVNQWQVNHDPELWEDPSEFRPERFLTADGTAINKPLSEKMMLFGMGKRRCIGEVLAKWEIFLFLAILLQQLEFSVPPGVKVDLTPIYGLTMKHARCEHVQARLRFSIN
Procedure: as §2, §3

[6] = target: T4, CYP2C8 (Homo sapiens, UniProt P10632); assay: CYP inhibition assay in human liver microsomes; type: in vitro ADME; conditions: human liver microsomes, NADPH; read-out: CYPs 2C8 (IC50)
T4 construct: co-incubated with human liver microsomes; from tissue; host or cells: human liver microsomes
T4 sequence (P10632 1-490): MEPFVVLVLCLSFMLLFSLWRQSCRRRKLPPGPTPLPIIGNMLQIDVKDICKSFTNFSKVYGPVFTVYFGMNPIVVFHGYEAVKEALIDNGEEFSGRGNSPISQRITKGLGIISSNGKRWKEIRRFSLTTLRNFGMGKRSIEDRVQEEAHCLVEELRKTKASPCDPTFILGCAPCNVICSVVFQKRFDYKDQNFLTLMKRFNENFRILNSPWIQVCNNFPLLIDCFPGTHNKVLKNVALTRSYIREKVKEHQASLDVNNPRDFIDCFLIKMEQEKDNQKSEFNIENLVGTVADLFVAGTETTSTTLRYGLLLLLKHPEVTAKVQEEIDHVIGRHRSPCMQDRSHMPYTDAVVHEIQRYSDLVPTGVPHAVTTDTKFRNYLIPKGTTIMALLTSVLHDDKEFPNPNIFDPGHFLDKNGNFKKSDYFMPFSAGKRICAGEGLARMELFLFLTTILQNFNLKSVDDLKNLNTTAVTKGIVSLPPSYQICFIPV
Procedure: as §2, §3

[7] = target: T5, CYP2D6 (Homo sapiens, UniProt P10635); assay: CYP inhibition assay in human liver microsomes; type: in vitro ADME; conditions: human liver microsomes, NADPH; read-out: CYPs 2D6 (IC50)
T5 construct: co-incubated with human liver microsomes; from tissue; host or cells: human liver microsomes
Procedure: as §2, §3

[8] = target: T6, CYP2C19 (Homo sapiens, UniProt P33261); assay: CYP inhibition assay in human liver microsomes; type: in vitro ADME; conditions: human liver microsomes, NADPH; read-out: CYPs 2C19 (IC50)
T6 construct: co-incubated with human liver microsomes; from tissue; host or cells: human liver microsomes
Procedure: as §2, §3

[9] = system: 22RV1 cells; assay: Cell proliferation inhibition assay in 22RV1 cells (CellTiter-Glo, 7 days); type: cell-based, human; conditions: Homo sapiens, 22Rv1, 168 h
Procedure, shortened: as §1

[10] = probe substrate midazolam, read-out: CYPs 3A4 (Midazolam) (IC50)
[11] = probe substrate testosterone, read-out: CYPs 3A4 (Testosterone) (IC50)

T1 sequence (P08684 whole entry): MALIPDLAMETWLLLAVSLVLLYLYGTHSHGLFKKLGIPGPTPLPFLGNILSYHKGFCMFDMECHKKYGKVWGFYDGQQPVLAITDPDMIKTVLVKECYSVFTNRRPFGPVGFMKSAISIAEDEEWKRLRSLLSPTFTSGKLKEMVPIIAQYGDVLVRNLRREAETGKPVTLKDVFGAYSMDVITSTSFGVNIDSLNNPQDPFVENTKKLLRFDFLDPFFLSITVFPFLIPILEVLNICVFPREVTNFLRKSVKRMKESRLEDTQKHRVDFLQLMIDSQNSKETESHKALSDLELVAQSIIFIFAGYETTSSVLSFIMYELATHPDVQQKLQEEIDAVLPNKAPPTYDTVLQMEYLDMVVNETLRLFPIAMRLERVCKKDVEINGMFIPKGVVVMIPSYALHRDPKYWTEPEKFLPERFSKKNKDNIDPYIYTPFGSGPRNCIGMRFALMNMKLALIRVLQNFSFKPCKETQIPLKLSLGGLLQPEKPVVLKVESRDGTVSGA
T5 sequence (P10635 whole entry): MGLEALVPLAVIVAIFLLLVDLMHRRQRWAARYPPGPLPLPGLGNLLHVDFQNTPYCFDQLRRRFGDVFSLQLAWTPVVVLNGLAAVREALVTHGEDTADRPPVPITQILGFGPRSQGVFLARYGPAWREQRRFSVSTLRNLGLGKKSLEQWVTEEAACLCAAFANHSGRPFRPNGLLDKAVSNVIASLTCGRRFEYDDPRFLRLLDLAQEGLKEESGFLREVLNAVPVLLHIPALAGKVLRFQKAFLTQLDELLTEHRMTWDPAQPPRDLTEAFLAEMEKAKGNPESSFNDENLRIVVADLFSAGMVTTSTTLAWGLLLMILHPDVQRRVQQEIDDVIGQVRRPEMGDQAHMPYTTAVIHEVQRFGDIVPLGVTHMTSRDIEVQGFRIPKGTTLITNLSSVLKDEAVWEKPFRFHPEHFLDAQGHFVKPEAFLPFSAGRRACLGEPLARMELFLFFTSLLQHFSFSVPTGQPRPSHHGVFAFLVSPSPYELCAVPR
T6 sequence (P33261 whole entry): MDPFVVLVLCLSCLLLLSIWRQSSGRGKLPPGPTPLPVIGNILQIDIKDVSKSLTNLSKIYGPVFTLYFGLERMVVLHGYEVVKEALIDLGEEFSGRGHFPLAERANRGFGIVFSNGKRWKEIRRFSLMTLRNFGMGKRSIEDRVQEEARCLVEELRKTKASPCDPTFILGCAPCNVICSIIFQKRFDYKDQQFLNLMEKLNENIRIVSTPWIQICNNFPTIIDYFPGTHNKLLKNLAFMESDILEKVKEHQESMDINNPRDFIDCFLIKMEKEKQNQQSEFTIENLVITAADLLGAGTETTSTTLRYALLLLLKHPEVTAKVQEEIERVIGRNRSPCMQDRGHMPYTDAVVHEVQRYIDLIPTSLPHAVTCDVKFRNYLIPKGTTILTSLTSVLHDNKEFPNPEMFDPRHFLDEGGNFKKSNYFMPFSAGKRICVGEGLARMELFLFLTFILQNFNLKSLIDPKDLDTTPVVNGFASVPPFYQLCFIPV
T2 sequence (P11712 whole entry): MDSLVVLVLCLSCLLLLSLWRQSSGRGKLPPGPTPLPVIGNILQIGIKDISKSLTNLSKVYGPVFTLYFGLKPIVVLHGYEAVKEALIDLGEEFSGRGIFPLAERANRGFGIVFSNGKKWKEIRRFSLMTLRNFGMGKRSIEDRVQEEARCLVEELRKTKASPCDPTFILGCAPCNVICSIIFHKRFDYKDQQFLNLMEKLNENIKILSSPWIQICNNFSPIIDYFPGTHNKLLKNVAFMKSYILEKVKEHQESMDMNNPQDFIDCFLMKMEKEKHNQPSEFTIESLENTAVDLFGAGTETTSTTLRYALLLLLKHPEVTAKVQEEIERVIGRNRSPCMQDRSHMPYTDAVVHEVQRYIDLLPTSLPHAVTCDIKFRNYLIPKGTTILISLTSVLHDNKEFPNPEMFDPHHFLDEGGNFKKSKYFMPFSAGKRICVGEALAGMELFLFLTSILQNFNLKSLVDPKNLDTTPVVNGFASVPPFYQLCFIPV

CC(C)(c1ccc(-c2cnc(OCc3ccnc(N4CC([S@@](C)(=N)=O)C4)n3)cn2)cc1)c1cc(Cl)c(OCCCl)c(C#N)c1 (single isomer, unassigned) [Compound 323B]
AUC(0-inf) ([1]; po, 30 mg/kg, PO-30mpk): 1180 µg·h/mL
Cmax ([1]; po, 30 mg/kg, PO-30mpk): 108 µg/mL
half-life ([1]; po, 30 mg/kg, PO-30mpk): 6.05 h
Tmax ([1]; po, 30 mg/kg, PO-30mpk): 2.7 h
IC50 [2]: 0.58 µM
IC50 [3, 10]: > 10 µM
IC50 [3, 11]: > 10 µM
IC50 [4]: 2.9 µM
IC50 [5]: > 10 µM
IC50 [6]: > 10 µM
IC50 [7]: > 10 µM
IC50 [8]: > 10 µM

CC(C)(c1ccc(-c2cnc(OCc3ccnc(N4CC(S(C)(=O)=O)C4)n3)cn2)cc1)c1cc(Cl)c(OCCCl)c(C#N)c1 [Compound 262]
C0 ([1]; 0.5 mg/kg, IV-0.5mpk): 1.79 µg/mL
clearance ([1]; 0.5 mg/kg, IV-0.5mpk): 0.033 L/h/kg
bioavailability ([1]; 30 mg/kg, PO-30mpk vs IV-0.5mpk): 71.2%
AUC(0-inf) ([1]; iv, 0.5 mg/kg, IV-0.5mpk): 15.2 µg·h/mL
half-life ([1]; iv, 0.5 mg/kg, IV-0.5mpk): 10.8 h
AUC(0-inf) ([1]; po, 30 mg/kg, PO-30mpk): 648 µg·h/mL
Cmax ([1]; po, 30 mg/kg, PO-30mpk): 74.7 µg/mL
half-life ([1]; po, 30 mg/kg, PO-30mpk): 5.2 h
Tmax ([1]; po, 30 mg/kg, PO-30mpk): 2 h
IC50 [9]: 0.14 µM
IC50 [2]: 0.34 µM
IC50 [3, 10]: > 10 µM
IC50 [3, 11]: > 10 µM
IC50 [4]: 8.3 µM
IC50 [5]: > 10 µM
IC50 [6]: > 10 µM
IC50 [7]: > 10 µM
IC50 [8]: > 10 µM
